Results from patent US8936667B2, “Aqueous leaching process for recovery of precious metals with addition of di-thiooxamide ligand” (Anglo Operations Limited, priority 2009, dated 2015).
≈ marks a conversion by molar mass, not a printed value.

Columns and labels:
physchem = assay type: physicochemical
Experimental: Prior to the leach, the ligand is dissolved in water which has been pre-adjusted to the leach pH. […] It was suspected that the ligand became doubly deprotonated at pH 13.5 and above.

[1] = Leaching of Witwatersrand gold ore, parameter studies (Example 2); conditions: oxygen/permanganate, Eh above 60 mV; 25° C., 0.9 g/l DTO
From the text: A head sample was submitted with every batch of samples in order to minimise errors caused by discrepancies in analysis among batches. The metal extractions for a particular batch of samples were therefore calculated using the head sample analysis from the same batch.
Deionised water was used in all preparation, dissolution, leach and washing steps.
The leach procedure was as follows:
The required amounts of ligand and alkaline water were mixed in a jacketed leach reactor until the ligand was fully dissolved. The ore was then added to the solution (unless otherwise specified, initial solids concentration was 17% m/m) and the reactor lid was fitted on. A stirring impeller, pH and (Ag/AgCl) redox electrodes, titration dispensing tube, temperature probe and gas distribution tube (if oxygen was used) were fitted into ports in the lid. The ore was then leached for the required amount of time. A water bath was used to maintain the leach temperature for the duration of the leach. The leach pH was controlled with an autotitrator. If oxygen was the oxidant, a mass flow controller was used to control oxygen-flow into the solution. At the end of the leach period, the slurry was filtered and the residue was given at least two water washes using water of the same pH as the leach solution, followed by a final wash with deionised water. […]

For `NC(=S)C(N)=S` [DTO, dithiooxamide], the Solubility in water (physchem) was “does not have good solubility in water”, the “Solubility of the ligand” value (physchem) was “extremely low” and the pKa (physchem) was 11. For the same compound, the solubility (physchem; pH 12, aqueous buffer, thermodynamic from solid) was ~900 µg/mL (≈ 7.49 mM), the “Dissolution of ligand in water pre-adjusted to leach pH” value (physchem; pH 13.5 to 14 compared with pH 11 to 13) was “dissolved far more readily” and the “Leach time to maximum gold extraction” value [1] was 4 h.
